Experimental findings from the supplement of paper PMC10307832 are described below.

Compound in the experiment: C1CC2=C(C1)C=C(C=C2)OC3=NC(=C4C(=N3)N(C=N4)CC5=CC=C(C=C5)C6=CC=CC=C6)N[C@@H](CC7=CC=CC=C7)CO [QS11]
The experiment can be described thus: relative viability (nuclei count vs DMSO), 5 days (fraction); higher = more cells survive. A digest of the protocol: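 Nuclei counted with MetaXpress define viability as the ratio of treated to vehicle wells, given as a median across plates. The lung cancer cell lines were in 1536-well plates, pinned with five √10-spaced library-drug doses and imaged at 4× after 5 days and Hoechst staining. Plates passed with control CV below 25% and at least one doubling.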

Regarding LCLC-97TM1, the relative viability (0.253 µM) is 1.15, the relative viability (2.53 µM) worked out at 0.998 and the relative viability (8 µM) is 0.84.
